Assay results taken from patent publication US20240261225A1, “FORMIC ACID AS PROCESSING AID IN SPRAY DRYING FOR BASIC DRUGS” (Lonza Bend Inc., priority 2021, published 2024).
Values after ≈ are worked out from the molar mass of the structure shown.

Tests used:
[1] = Gefitinib solubility in methanol and methanol:water mixtures (saturated solutions, HPLC); format: physicochemical; details: 20° C.; for Solubility without formic acid: calculated based on densities at RT
Description: Crystalline gefitinib was added in excess to methanol and methanol:water mixtures to form saturated solutions at 20° C. After 24 hour of stirring, 1 mL aliquots were centrifuged at 10'000 RCF for 3 min. The supernatant was then analyzed for gefitinib concentration by HPLC.

physchem [2] = details: 21 °C, organic solvent or mixture, thermodynamic from solid, Solubility with formic acid
Description: The solubility of gefitinib in solvent mixtures with 98% formic acid were obtained by suspending at RT 300 mg of crystalline gefitinib in 5 mL of solvent containing 100 microliters of formic acid at 21° C. (4.0 eq of formic acid). Both solutions were visually clear solutions at 60 mg/mL.
5 ml of a mixture of 4.9 ml of 90:10 methanol/water w/w with 0.1 ml HCOOH weigh 4.122 g based on the densities at RT as stated below.
5 ml of a mixture of 4.9 ml 80:20 methanol:water w/w with 0.1 ml HCOOH weigh 4.212 g based on the densities at RT as stated below.
The solution in the mixture of 4.9 ml of 90:10 MeOH:H2O w/w with 0.1 ml HCOOH was a visually clear solution at 72.8 mg/g based on the densities at RT as stated below.
The solution in the mixture of 4.9 ml of 80:20 MeOH:H2O w/w with 0.1 ml HCOOH was a visually clear solution at 71.2 mg/g based on the densities at RT as stated below.
[Solubility with formic acid]/[Solubility without formic acid]

[3] = according to go.drugbank.com; cited from earlier work
physchem [4] = details: 25 °C, organic solvent or mixture
[5] = Nilotinib solubilities without and with formic acid; details: for Solubility with formic acid: 4.0 molar equivalents of formic acid

Row | Solubility without formic acid ([1]; MeOH:H2O 80:20 (w/w)) | Solubility without formic acid ([1]; MeOH:H2O 90:10 (w/w)) | Solubility without formic acid ([1]; MeOH:H2O 100:0 (w/w)) | solubility at 24 h ([1]; methanol, organic solvent or mixture, thermodynamic from solid, MeOH:H2O 100:0 (w/w), read-out: Solubility without formic acid) | solubility (physchem [2]) | solubility (physchem [4]; methanol) | solubility (physchem [4]; methanol:water 90:10 (w/w)) | Solubility with formic acid ([5]; MeOH:H2O 80:20 (w/w), 25° C.) | Solubility without formic acid ([5]; MeOH:H2O 80:20 (w/w), 25° C.) | Solubility with formic acid ([5]; MeOH:H2O 90:10 (w/w), 25° C.) | Solubility with formic acid ([5]; MeOH:H2O 100:0 (w/w), 25° C.) | effect of addition of formic acid on solubility over the solubility in MeOH ([5]; formic acid with and without the presence of water) | SMILES | basic pKa [3]
1 | 7.6 mg/g | 7.4 mg/g | 8.8 mg/g | 7000 µg/mL (≈ 15.7 mM) | ≥ 60000 µg/mL |  |  |  |  |  |  |  | COc1cc2ncnc(Nc3ccc(F)c(Cl)c3)c2cc1OCCCN1CCOCC1 [gefitinib] | 
2 |  |  |  |  |  | 2900 µg/mL (≈ 5.48 mM) | 2000 µg/mL (≈ 3.78 mM) | 8200 µg/mL | 1000 µg/mL (≈ 1.89 mM) | 8200 µg/mL | 7900 µg/mL | increase of solubility | Cc1cn(-c2cc(NC(=O)c3ccc(C)c(Nc4nccc(-c5cccnc5)n4)c3)cc(C(F)(F)F)c2)cn1 [nilotinib] | 5.92
